Patent US5703079A, “Tetrahydrofuran antifungals” (Schering Corporation, priority 1995, dated 1997)

What was measured:
[1] = test system: Candida tropicalis & stellatoidea; assay: in vitro antifungal broth dilution, Candida tropicalis & stellatoidea (5 strains); type: cell-based; conditions: for percentages of strains with MICs ≤1 mcg/ml: Table Q; for percentages of strains with MFCs ≤1 mcg/ml: Table R; for MIC 90: Table S, MIC for 90% of the strains
Experimental: (§1) The in vitro antifungal activity tests were performed via conventional broth dilution methods in Sabouraud dextrose broth ("SDB") medium and Eagles Minimum Essential Medium ("EMEM") against a large number of fungi. Minimum Inhibitory Concentrations ("MICs") were measured after 24, 48 and 72 hour tests. In many cases, Minimum Fungicidial Concentrations ("MFCS") were measured after 48 and 72 hours.

Dermatophytes = assay: in vitro antifungal broth dilution, dermatophytes (6 strains); type: cell-based, T. rubrum, T. mentagrophytes, and T. tonsurans; conditions: for percentages of strains with MICs ≤1 mcg/ml: Table Q; for percentages of strains with MFCs ≤1 mcg/ml: Table R
Experimental: as §1

Candida glabrata = assay: in vitro antifungal broth dilution, Candida glabrata (9 strains); type: cell-based; conditions: for percentages of strains with MICs ≤1 mcg/ml: Table Q; for percentages of strains with MFCs ≤1 mcg/ml: Table R; for MIC 90: Table S, MIC for 90% of the strains
Experimental: as §1

Aspergillus = assay: in vitro antifungal broth dilution, Aspergillus (37 strains); type: cell-based, Aspergillus (flavus, fumigatus and other species); conditions: for percentages of strains with MICs ≤1 mcg/ml / percentages of strains with MFCs ≤1 mcg/ml: Aspergillus, 37 strains; for percentages of strains with MICs ≤1 mcg/ml: Table Q; for percentages of strains with MFCs ≤1 mcg/ml: Table R
Experimental: as §1

Candida albicans = assay: in vitro antifungal broth dilution, Candida albicans (26 strains); type: cell-based; conditions: for percentages of strains with MICs ≤1 mcg/ml: Table Q; for percentages of strains with MFCs ≤1 mcg/ml: Table R; for MIC 90: Table S, MIC for 90% of the strains
Experimental: as §1

Candida krusei = assay: in vitro antifungal broth dilution, Candida krusei (16 strains); type: cell-based; conditions: for percentages of strains with MICs ≤1 mcg/ml: Table Q; for percentages of strains with MFCs ≤1 mcg/ml: Table R
Experimental: as §1

Cryptococcus neoformans = assay: in vitro antifungal broth dilution, Cryptococcus neoformans (3 strains); type: cell-based; conditions: for percentages of strains with MICs ≤1 mcg/ml: Table Q; for percentages of strains with MFCs ≤1 mcg/ml: Table R; for MIC 90: Table S, MIC for 90% of the strains
Experimental: as §1

[2] = serum levels, half lives and tissue distribution following oral dosing; type: in vivo; conditions: methyl cellulose formulation, mice, rats, dogs and monkeys

Row | Structure (SMILES) | percentages of strains with MICs ≤1 mcg/ml [1] [%] | percentages of strains with MFCs ≤1 mcg/ml [1] [%] | MIC 90 [1] | percentages of strains with MICs ≤1 mcg/ml (Dermatophytes) [%] | percentages of strains with MICs ≤1 mcg/ml (Candida glabrata) [%] | percentages of strains with MFCs ≤1 mcg/ml (Candida glabrata) [%] | percentages of strains with MICs ≤1 mcg/ml (Aspergillus) [%] | percentages of strains with MICs ≤1 mcg/ml (Candida albicans) [%] | percentages of strains with MFCs ≤1 mcg/ml (Candida albicans) [%] | percentages of strains with MICs ≤1 mcg/ml (Candida krusei) [%] | percentages of strains with MICs ≤1 mcg/ml (Cryptococcus neoformans) [%] | percentages of strains with MFCs ≤1 mcg/ml (Cryptococcus neoformans) [%] | MIC 90 (Cryptococcus neoformans) | MIC 90 (Candida glabrata) [MCG/ML] | MIC 90 (Candida albicans) | other results
1 | CCC(C(C)O)n1ncn(-c2ccc(N3CCN(c4ccc(OCC5COC(Cn6cncn6)(c6ccc(F)cc6F)C5)cc4)CC3)cc2)c1=O (centres unmarked) [drawing 25] | 100 | 100 | .117 MCG/ML | 100 | 22 | 22 | 100 | 100 | 100 | 100 | 100 | 100 | .05 MCG/ML | – | – | percentages of strains with MFCs ≤1 mcg/ml (Dermatophytes; listed as drawing 29): 67%; percentages of strains with MFCs ≤1 mcg/ml (Aspergillus; listed as drawing 29): 50%; percentages of strains with MFCs ≤1 mcg/ml (Candida krusei; listed as drawing 29): 88%
2 | OC(Cn1cncn1)(Cn1cncn1)c1ccc(F)cc1F [fluconazole, reference compound] | 100 | 100 | – | 100 | 0 | 0 | 0 | 100 | 100 | 0 | 0 | 0 | – | – | – | percentages of strains with MFCs ≤1 mcg/ml (Dermatophytes): 0%; percentages of strains with MFCs ≤1 mcg/ml (Aspergillus): 0%; MFC (Aspergillus; SDB, 37 species of Aspergillus, compared to fluconazole, read-out: geometric mean MFC): ≥ 32 µg/mL; percentages of strains with MFCs ≤1 mcg/ml (Candida krusei): 0%
3 | CCC(C(C)O)n1ncn(-c2ccc(N3CCN(c4ccc(OCC5COC(Cn6cncn6)(c6ccc(F)cc6F)C5)cc4)CC3)cc2)c1=O (centres unmarked) [drawing 26] | 100 | 100 | .117 MCG/ML | – | 22 | 22 | – | 100 | 100 | – | 100 | 100 | .007 MCG/ML | 17.1 | .174 MCG/ML | percentages of strains with MFCs ≤1 mcg/ml (Dermatophytes; listed as drawing 30): 83%; percentages of strains with MFCs ≤1 mcg/ml (Aspergillus; listed as drawing 30): 62%; percentages of strains with MFCs ≤1 mcg/ml (Candida krusei; listed as drawing 30): 94%
4 | CCC(C(C)O)n1ncn(-c2ccc(N3CCN(c4ccc(OCC5COC(Cn6cncn6)(c6ccc(F)cc6F)C5)cc4)CC3)cc2)c1=O (centres unmarked) [drawing 27] | 100 | 100 | .354 MCG/ML | – | 33 | 22 | – | 100 | 100 | – | 100 | 100 | .101 MCG/ML | 28.8 | .139 MCG/ML | percentages of strains with MFCs ≤1 mcg/ml (Dermatophytes; listed as drawing 31): 100%; percentages of strains with MFCs ≤1 mcg/ml (Aspergillus; listed as drawing 31): 89%; percentages of strains with MFCs ≤1 mcg/ml (Candida krusei; listed as drawing 31): 100%
5 | CCC(C(C)O)n1ncn(-c2ccc(N3CCN(c4ccc(OCC5COC(Cn6cncn6)(c6ccc(F)cc6F)C5)cc4)CC3)cc2)c1=O (centres unmarked) [drawing 24] | – | – | – | – | – | – | – | – | – | – | – | – | – | – | – | serum levels compared to azoles of similar structure [2]: consistently higher serum levels
